Results on four compounds are retold here after patent US5252592A, “Tetrazoleacetic acid derivatives having aldose reductase inhibitory activity” (Wakamoto Pharmaceutical Co., Ltd., priority 1991, dated 1993).

The assay has as its target T1, aldose reductase (Rattus norvegicus, UniProt P07943).
T1 construct: their crystalline lenses were immediately removed and stored at -80° C; The lenses were homogenized; from tissue; host or cells: crystalline lens of six-week-old male SD rats (30,000 rpm supernatant, dialysed)
The experiment in a line: Test for Examining Aldose Reductase Inhibitory Effect. It is filed as biochemical, male SD rats (crystalline lenses). Particulars: rat lens aldose reductase; DL-glyceraldehyde 10 mM, NADPH 0.15 mM, pH 5.2, 30° C., 5 minutes; least-square regression of log dose-response curve. As for the experimental part: Six-weeks-old male SD rats were anesthetized with ether and killed. Then their crystalline lenses were immediately removed and stored at -80° C. […] The resulting supernatant was dialyzed overnight against 0.05M sodium chloride solution to obtain an aldose reductase solution. All operations were conducted at 4° C. and the enzyme solution was stored at -80° C.
More specifically, 0.1 ml of DL-glyceraldehyde (final concentration: 10 mM) was added to 0.9 ml of 100 mM sodium potassium phosphate buffer (pH 5.2) which contained lithium sulfate (final concentration: 400 mM), reduced nicotinamide adenine dinucleotide phosphate (final concentration: 0.15 mM), the enzyme solution, and the compound to be evaluated (final concentration: 10^-6 M, 10^-7 M or 10^-8 M), and then the reaction was conducted at 30° C. for 5 minutes. During the reaction, the change in the absorbance at 340 nm with time was monitored.
The maximum reducing rate of the absorbance […] during the reaction was determined. By subtracting, from this value, the maximum reducing rate (U0) at 340 nm of the reaction solution before the addition of the substrate (DL-glyceraldehyde), the reaction rate (V=U-U0) was calculated as a true reaction rate in the presence of the compound to be tested.
The same procedure was repeated except for the absence of the compound to be tested. A true reaction rate (V0) in case the enzyme was not inhibited was calculated (V0 =U'-U0 '). The aldose reductase inhibitory activity of the test compounds was determined according to the following formula:
Rate of Inhibition (%)=(V0 -V)/V0 ×100
The concentration of inhibitor giving 50% inhibitation of enyzme activity […] was estimated from the least-square regression line of the log dose-response curve.
Usually IC50 stands for the concentration needed to halve the response being measured. Read a low IC50 as greater potency. In turn, `O=C(O)Cn1nnnc1-c1ccc2ccccc2c1` [Example 3 - 1] yielded a 50% inhibitory concentration (IC50) of 50 nM.
The compound `O=C(O)Cn1nnnc1-c1cccc2ccccc12` [Example 3 - 2, [5-(1-naphthyl)tetrazol-1-yl]acetic acid] showed an IC50 of 25 nM.
In the case of `COc1ccc2cc(-c3nnnn3CC(=O)O)ccc2c1` [Example 3 - 3], half-maximal inhibition (IC50) required 19 nM.
In turn, `COc1ccc2c(-c3nnnn3CC(=O)O)cccc2c1C(F)(F)F` [Example 3 - 4, [5-[1-(6-methoxy-5-trifluoromethyl)naphthyl]tetrazol-1-yl]acetic acid] showed an IC50 of 130 nM.
